How the values were obtained:
[1] = molecular target: T1, hLXRα (Homo sapiens, UniProt Q13133); experiment: LXRα transactivation activity, GAL4-hLXRα LBD / (UAS)4-alkaline phosphatase reporter, transient transfection in CHO-K1 cells; assay type: cell-based; design: key to Enhancing effect (LXRα): “—” indicates no significant effect; conditions: for LXRα transactivation activity, % of T0901317: co-treated with LXR agonist T0901317 (0.5 μM); for LXRα transactivation activity, % of T0901317 / LXRα transactivation activity: 48 hours; for Antagonistic effect (LXRα), ↓ percentage: against LXR agonist (T0901317); for LXRα transactivation activity: sample alone at 1, 5, and 10 μM, p>0.05 vs vehicle; for Enhancing effect (LXRα): sample alone, enhancing percentage relative to positive control
T1 construct: expressed in transfected cells; host or cells: CHO-K1 (Chinese hamster ovary), transient transfection with pBKCMV GAL4-hLXRα
T1 sequence (Q13133 209-447 limits assumed): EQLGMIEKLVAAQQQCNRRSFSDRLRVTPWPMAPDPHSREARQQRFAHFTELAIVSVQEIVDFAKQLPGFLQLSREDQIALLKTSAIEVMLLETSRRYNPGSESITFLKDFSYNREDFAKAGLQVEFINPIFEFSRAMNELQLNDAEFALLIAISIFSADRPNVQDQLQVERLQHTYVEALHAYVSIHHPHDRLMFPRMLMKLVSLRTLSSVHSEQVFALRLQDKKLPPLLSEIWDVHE
Text: (§1) For the evaluation of LXR transactivation activity, the embodiments of the present invention utilize transient transfection and the vectors used are: (1) pBKCMV GAL4-hLXRα and pBKCMV GAL4-hLXRβ; (2) pBKCMV (UAS)4-alkaline phosphatase, wherein pBKCMV GAL4-hLXRα and pBKCMV GAL4-hLXRβ are pBKCMV vectors having chimeric receptor of GAL4-hLXRα ligand binding doman (LBD) and GAL4-hLXRβ LBD, while pBKCMV (UAS)4-alkaline phosphatase is the pBKCMV vector having the reporter gene of (UAS)4 alkaline phosphatase (ALP). UAS indicates upstream activation sequence. All vectors were co-transfected into Chinese hamster ovary cell (CHO-K1, from Bioresource Collection and Research Center of Food Industry Research and Development Institute, BCRC: 6006).
(§2) Transient transfection of the embodiments of the present invention was performed using Lipofectamin 2000 (Invitrogen). Firstly, after CHO-K1 cells were fully grown, cells were dis-attached by trpsin-EDTA solution and were eluted using 10% CSF-Ham's F-12, wherein CSF represents the FBS pretreated by charcoal (Dextran coated, Sigma, C6231). The cell suspension was diluted to 2.5×10^5 cells/mL, planted onto 96-well plate (100 μL/well), and incubated for 20 to 24 hours at 37° C. with 5% CO2.
(§3) Detailed steps for transfection are as follow: Lipofectamine 2000 was diluted in PS tubes by serum-free OPTI-MEM®I (GIBCO, 31985) for 5 minutes at room temperature; the vector DNA was diluted by a small amount of serum-free OPTI-MEM®I; the vectors in Table 2 were mixed with Lipofectamine 2000 with specific ratio (GAL4-hLXRα:(UAS)4-ALP=4:1; GAL4-hLXRβ:(UAS)4-ALP=4:1) and reacted for 20 minutes at room temperature. During the reaction, the cells were washed by serum-free Ham's F-12 medium (100 μL/well) twice to allow the formation of DNA-liposome complex; the vectors were then added to the above washed cells for transfection to take place at 37° C. and 5% CO2. Solution for transfection was removed after the transient transfection was completed.
Cells after transient transfection in Example 1 and removing the transfection solution were added to fucoxanthin and fucoxanthinol diluted with 10% TCM-Ham's F-12, LXR agonist T0901317, or none, to serve as experimental group, positive control, or vehicle, respectively. The ALP activities of all groups were analysis after incubation for 48 hours at 37° C. with 5% CO2.
(§4) The ALP activity analysis was performed by reacting the culture medium (20 μL/well) and reactant (100 mM pNPP:H2O:2X SEAP assay buffer=1:9:10, 200 μL/well) in a new 96-well plate for 15 minutes at 37° C. The absorbance at 405 nm was measured using microspectrometer.

[2] = molecular target: T2, hLXRβ (Homo sapiens, UniProt P55055); experiment: LXRβ transactivation activity, GAL4-hLXRβ LBD / (UAS)4-alkaline phosphatase reporter, transient transfection in CHO-K1 cells; assay type: cell-based; conditions: for LXRβ transactivation activity, % of GW3965: co-treated with LXR agonist GW3965 (0.5 μM); for LXRβ transactivation activity, % of GW3965 / LXRβ transactivation activity, % of the positive control GW3965: 48 hours; for Antagonistic effect (LXRβ), ↓ percentage: against LXR agonist (GW3965); for Enhancing effect (LXRβ), ↑ percentage: sample alone, relative to positive control
T2 construct: expressed in transfected cells; host or cells: CHO-K1 (Chinese hamster ovary), transient transfection with pBKCMV GAL4-hLXRβ
T2 sequence (P55055 222-460 limits assumed): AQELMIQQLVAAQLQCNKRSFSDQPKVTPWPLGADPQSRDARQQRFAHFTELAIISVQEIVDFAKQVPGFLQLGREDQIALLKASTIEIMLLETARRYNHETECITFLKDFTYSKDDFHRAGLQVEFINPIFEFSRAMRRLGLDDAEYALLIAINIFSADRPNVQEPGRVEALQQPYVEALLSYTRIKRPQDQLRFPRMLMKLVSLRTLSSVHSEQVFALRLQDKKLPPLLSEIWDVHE
Text: as §1, §2, §3, §4
Cells after the abovementioned transient transfection and removing the transfection solution were added to fucoxanthin and fucoxanthinol diluted with 10% TCM-Ham's F-12, LXR agonist GW3965 (3-[3-[[[2-Chloro-3-trifluoromethyl)-phenyl]methyl](2,2-diphenyl-ethyl)amino]-propoxy]benzeneacetic acid), or none, to serve as experimental group, positive control, or vehicle, respectively. The ALP activities of all groups were analysis after incubation for 48 hours at 37° C. with 5% CO2. Same method for ALP analysis applied as describe in Example 2.

LXRα transactivation activity, % of T0901317 ([1]; 5 μM) | Antagonistic effect (LXRα), ↓ percentage ([1]; 10 μM) | LXRα transactivation activity, % of T0901317 ([1]; 10 μM) | Enhancing effect (LXRα) [1] | LXRβ transactivation activity, % of GW3965 ([2]; 5 μM) | Antagonistic effect (LXRβ), ↓ percentage ([2]; 10 μM) | LXRβ transactivation activity, % of GW3965 ([2]; 10 μM) | Enhancing effect (LXRβ), ↑ percentage ([2]; 10 μM) | LXRβ transactivation activity, % of the positive control GW3965 ([2]; sample alone at 10 μM) | LXRβ transactivation activity, % of GW3965 ([2]; 1 μM) | Enhancing effect (LXRβ), ↑ percentage ([2]; 1 μM) | LXRβ transactivation activity, % of the positive control GW3965 ([2]; sample alone at 1 μM) | LXRβ transactivation activity, % of the positive control GW3965 ([2]; sample alone at 5 μM) | Compound | LXRα transactivation activity [1]
76% | ↓59% | 41% | — | 69% | ↓49% | 51% | ↑2% | approximately 2% |  |  |  |  | fucoxanthin | no significant LXRα transactivation activities
48% | ↓80% | 20% | — | 62% | ↓64% | 36% |  |  | 79% | ↑3% | approximately 3% | approximately 2% | C\C(C=C=C1C(C)(C)C[C@H](O)C[C@@]1(C)O)=C/C=C/C(C)=C/C=C/C=C(C)/C=C/C=C(\C)C(=O)C[C@@]12O[C@]1(C)C[C@@H](O)CC2(C)C [fucoxanthinol] | no significant LXRα transactivation activities

From patent US9056091B1, “Composition for regulation of liver X receptor” (National Taiwan University, priority 2014, dated 2015)
